Laboratory results taken from publication PMC9861175, “Diversity and Biosynthetic Potential of Fungi Isolated from St. John’s Island, Singapore” (International Journal of Molecular Sciences, 2023).
pIC50: −log10 of the molar value. Like-named read-outs stand apart in the source and are kept apart here.

Legend:
C. albicans ATCC 10231 = assay: Antifungal growth inhibition (OD) screen against C. albicans; assay type: cell-based; details: Candida albicans, read-out: IC50 CA
Experimental: (§1) Dried extracts were resuspended in MeOH to obtain 20 mg/mL sample concentration followed by sonication for complete solubilizing. Ten microliters (10 µL) of the extracts per well were added to 96-well plates followed by drying via centrifugal vacuum concentrator. Upon drying, 100 µL of 10% DMSO was added to each well to obtain a sample concentration of 2 mg/mL. Ten microliters (10 µL) were subsequently used for the antimicrobial bioassays where 90 µL of the respective microbial cultures were added to each sample, leading to a final extract concentration of 200 µg/mL. For preliminary screening, extracts from all 30 fungi were evaluated for antimicrobial activities using the highest concentration of 200 µg/mL.
For the C. albicans screen, a single colony from freshly streaked C. albicans on Sabouraud dextrose agar (SDA) was inoculated into 25-mL of Sabouraud liquid medium (SLM) and incubated at 35 °C with shaking at 150 rpm for 18 hrs. Subsequently, 1% of the culture (250 µL) was prepared with SLM and incubated at 35 °C with shaking for 6 h. OD600 was monitored until it reached approximately 0.8. Cell density (D) of the culture was calculated using the following equation: D = [(30 × OD600) − 8] × 10^6 CFU/mL. Final cell densities were adjusted to 2.5 × 10^5 CFU/mL and inoculated as 90 µL suspensions into 96-well plates. Similar to the antibacterial assays, upon addition of 10 µL of extracts to the cell suspensions, the plates were incubated at 37 °C for 20 h prior to OD readings. For each extract tested, three technical replicates were used. Amphotericin B was used as the antifungal standard control in C. albicans screen.

[1] = tested on: Escherichia coli ATCC 25922; assay: Antibacterial broth microdilution growth inhibition (OD600) against E. coli; assay type: cell-based; details: read-out: IC50 EC
Experimental: as §1
(§2) For the antibacterial bioassays, the test microorganisms S. aureus, Methicillin-resistant S. aureus (MRSA) and E. coli were plated on Mueller-Hinton II agar (Merck, Germany) and incubated overnight at 37 °C. Colonies were added to a glass tube containing 0.85% saline solution until the turbidity was equivalent to 0.5 McFarland Standard (approximate cell density 1.5 × 10^8 CFU/mL). Cell suspensions were then diluted in MH2 liquid media to obtain a final cell density of 5 × 10^5 CFU/mL. Ninety microliters (90 µL) of cell suspensions were added to 10 µL of extracts in the 96-well bioassay plates and incubated at 37 °C for 20 h. For each extract tested, three replicates were used. The optical density (OD) of each well was measured using a Hidex Sense microplate reader (Hidex, Finland) at 600 nm. Percentage growth inhibition was calculated according to the following formula with the quality of the bioassay assessed based on the Z-prime analysis. A Z-prime of ≥0.7 indicates the robustness of the high throughput screening data. Gentamicin was used as the standard control against S. aureus and E. coli while vancomycin was used as the standard control in the MRSA assay.

[2] = tested on: Staphylococcus aureus ATCC 25923; assay: Antibacterial broth microdilution growth inhibition (OD600) against S. aureus; assay type: cell-based; details: for pIC50: read-out: IC50 SA
Experimental: as §1, §2

human hepatoma cell line = details: cited from earlier work
[3] = tested on: Methicillin-resistant Staphylococcus aureus ATCC 33591; assay: Antibacterial broth microdilution growth inhibition (OD600) against MRSA; assay type: cell-based; details: 20 h
Experimental: as §1, §2

[4] = tested on: A549 human lung carcinoma cells ATCC CCL-185; assay: Cytotoxicity assay (PrestoBlue, 72 h) on A549 cells; assay type: cell-based; details: for pIC50: Homo sapiens, read-out: IC50 A549
Experimental: The cytotoxic effect of the isolated compounds on the A549 human lung carcinoma cell line was determined as described previously. A549 cells at a concentration of 3.3 × 10^4 cells/mL in Dulbecco’s Modified Eagle Medium (DMEM, Gibco, Life Technologies, Bleiswijk, The Netherlands) were treated with isolated compounds at concentrations ranging from 0.1 μM to 200 μM and incubated for 72 h at 37 °C in 5% CO2 and 95% relative humidity. Cytotoxic effect of the compounds was measured after the addition of PrestoBlue™ cell viability reagent (Thermo Fisher Scientific, USA) and incubation for 2 h by reading of the plates’ fluorescence at an excitation wavelength of 560 nm and emission wavelength of 590 nm using the Tecan Infinite M1000 Pro reader. Puromycin served as the standard control.

[5] = tested on: L5178Y mouse lymphoma cell line; parameters: method as in doi:10.1016/j.phytol.2014.12.010; details: cited from earlier work
[6] = mycotoxins associated with food spoilage; cited from earlier work
[7] = ATCC10231, isolated compounds, C. albicans ATCC 10231, 20 h
[8] = ATCC25922, isolated compounds, E. coli ATCC 25922, 20 h, 37 °C
[9] = Staphylococcus aureus, ATCC25923, isolated compounds, S. aureus ATCC 25923, 20 h, 37 °C
[10] = Staphylococcus aureus, isolated compounds, MRSA ATCC 33591, 37 °C, read-out: IC50 MRSA
[11] = isolated compounds, A549 cells, 72 h
[12] = Staphylococcus aureus, read-out: IC50 MRSA, isolated compounds, MRSA ATCC 33591, 37 °C
[13] = Staphylococcus aureus, ATCC25923, 20 h, isolated compounds, S. aureus ATCC 25923, 20 h, 37 °C
[14] = Staphylococcus aureus, read-out: IC50 MRSA

Row | Molecule | pIC50 (C. albicans ATCC 10231; [7]) | pIC50 [1, 8] | pIC50 [2, 9] | pIC50 [4, 11] | pIC50 ([4]; A549, 72 h) | also measured
1 | C[C@@H]1[C@H](O)[C@@H](C)/C=C/C=C/C=C/C=C/C=C/C=C/C=C/[C@H](O[C@@H]2O[C@H](C)[C@@H](O)[C@H](N)[C@@H]2O)C[C@@H]2O[C@](O)(C[C@@H](O)C[C@@H](O)[C@H](O)CC[C@@H](O)C[C@@H](O)CC(=O)O[C@H]1C)C[C@H](O)[C@H]2C(=O)O [Amphotericin B, reference compound] | 6.85 | – | – | – | – | –
2 | CNC(C)C1CCC(N)C(OC2C(N)CC(N)C(OC3OCC(C)(O)C(NC)C3O)C2O)O1 (stereo not shown) [Gentamicin, reference compound] | – | 6.17 | 6.66 | – | – | –
3 | COC(=O)c1ccccc1NC(=O)C(CC[S+](C)[O-])NC(=O)c1cnc2c(=O)n(C)c(=O)n(C)c2n1 (stereo not shown) [Penilumamide A] | < 3.70 | < 3.70 | 4.06 | 4.00 | – | cytotoxicity activity against a human hepatoma cell line (human hepatoma cell line): weak cytotoxicity activity; pIC50 [3, 10]: < 3.70; antimicrobial activity against S. aureus (in words) ([2]; isolated compounds): weak; cytotoxic activity against A549 cells (in words) ([4]; isolated compounds): weak
4 | COC(=O)c1ccccc1NC(=O)C(CCSC)NC(=O)c1cnc2c(n1)c(=O)n(C)c(=O)n2C (stereo not shown) [Penilumamide B] | < 3.70 | < 3.70 | < 3.70 | 3.95 | – | pIC50 [3, 10]: < 3.70
5 | CC(NC(=O)c1cnc2c(n1)c(=O)n(C)c(=O)n2C)C(=O)Nc1ccccc1C(N)=O (stereo not shown) [Penilumamide D] | < 3.70 | < 3.70 | < 3.70 | < 3.70 | – | cytotoxicity activity against a human hepatoma cell line (human hepatoma cell line): weak cytotoxicity activity; pIC50 [3, 10]: < 3.70
6 | COc1ccc(C2SSC34CC5(O)C(O)C=CC(O)C5ON3C(=O)C2N(C)C4=O)c(O)c1OC (stereo not shown) [Pretrichodermamide C] | < 3.70 | < 3.70 | – | – | < 3.70 | pIC50 [3, 12]: > 4.30; pIC50 ([3]; read-out: IC50 MRSA, isolated compounds, MRSA ATCC 33591, 37 °C): 4.38; pIC50 [2, 13]: > 4.30; pIC50 ([2]; isolated compounds, S. aureus ATCC 25923, 20 h, 37 °C): 4.46; cytotoxic activity against A549 cells (in words) ([4]; isolated compounds): no cytotoxic activity; activity against the L5178Y mouse lymphoma cell line [5]: inactive
7 | COc1ccc(C[C@H](N)C(=O)N[C@H]2[C@@H](O)[C@H](n3cnc4c(N(C)C)ncnc43)O[C@@H]2CO)cc1 [Puromycin, reference compound] | – | – | – | 6.60 | – | –
8 | CN[C@H](CC(C)C)C(=O)N[C@H]1C(=O)N[C@@H](CC(N)=O)C(=O)N[C@H]2C(=O)N[C@H]3C(=O)N[C@H](C(=O)N[C@H](C(=O)O)c4cc(O)cc(O)c4-c4cc3ccc4O)[C@H](O)c3ccc(c(Cl)c3)Oc3cc2cc(c3O[C@@H]2O[C@H](CO)[C@@H](O)[C@H](O)[C@H]2O[C@H]2C[C@](C)(N)[C@H](O)[C@H](C)O2)Oc2ccc(cc2Cl)[C@H]1O [Vancomycin, reference compound] | – | – | – | – | – | pIC50 [3, 14]: 5.82
9 | COC1=C(c2c(OC)cc3cc4c(c(O)c3c2O)C(=O)OC(C)C4)C(=O)c2c(cc3c(c2O)C(=O)OC(C)C3)C1=O (stereo not shown) [Viomellein] | 4.75 | < 4.00 | – | – | 4.38 | liver and kidney damage in animals [6]: known to cause liver and kidney damage in animals; pIC50 [3, 12]: 5.54; pIC50 [2, 13]: 5.49
10 | COc1cc2cc3c(c(O)c2c(O)c1-c1c(OC)cc2cc4c(c(O)c2c1O)C(=O)O[C@H](C)C4)C(=O)O[C@H](C)C3 [Vioxanthin] | – | – | – | – | 4.11 | liver and kidney damage in animals [6]: known to cause liver and kidney damage in animals; pIC50 [3, 14]: 5.80; pIC50 ([1]; ATCC25922, 20 h): < 3.70; pIC50 (C. albicans ATCC 10231; ATCC10231, 20 h): 4.44; pIC50 ([2]; Staphylococcus aureus, ATCC25923, 20 h): 5.52
11 | COC1=C(C2=C(OC)C(=O)c3cc4c(c(O)c3C2=O)C(=O)OC(C)C4)C(=O)c2c(cc3c(c2O)C(=O)OC(C)C3)C1=O (stereo not shown) [Xanthomegnin] | 4.73 | < 3.70 | – | – | 4.18 | liver and kidney damage in animals [6]: known to cause liver and kidney damage in animals; pIC50 [3, 12]: 4.45; pIC50 [2, 13]: 4.72
12 | Penilumamide E | – | – | – | – | – | cytotoxicity activity against a human hepatoma cell line (human hepatoma cell line): weak cytotoxicity activity
